Earlier results as cited in US20260240855A1 (priority 2023, published 2026).

System: extracellular signal-regulated kinase (ERK)
Conditions: preclinical studies

SMILES: C=CC(=O)N1CCN(c2nc(=O)n(-c3c(C)ccnc3C(C)C)c3nc(-c4c(O)cccc4F)c(F)cc23)[C@@H](C)C1 (atropisomer, axis not shown; (M)) [Sotorasib, 6-fluoro-7-(2-fluoro-6-hydroxyphenyl)-(1M)-1-[4-methyl-2-(propan-2-yl)pyridin-3-yl]-4-[(2S)-2-methyl-4-(prop-2-enoyl)piperazin-1-yl]pyrido[2,3-d]pyrimidin-2(1H)-one]
- phosphorylation of extracellular signal-regulated kinase (ERK): inhibited nearly all detectable phosphorylation
